In patent US9145392B2, “Imidazole amines as modulators of kinase activity” (Merck Patent GmbH, priority 2011, dated 2015):

What follows are molecules tested against P70S6K (T412E mutant) (Homo sapiens (Human), UniProt P23443, T412E) (assay: P70S6K enzyme assay). Details: read-out: IC50 p70S6K.
Assay type: biochemical
Description: P70S6K inhibitor compounds are diluted and plated in 96 well plates. […] The reaction is incubated for 90 min at 25° C., before the addition of 10 mM EDTA to stop the reaction. The proportion of substrate and product (phosphorylated) peptide is analysed on a Caliper Life Sciences Lab Chip 3000, using a pressure of −1.4 psi, and upstream and downstream voltages of −3000 and −700 respectively. Product peaks are resolved before substrate peaks on the resulting chromatograms.

P70S6K (T412E mutant), sequence (P23443 whole entry T412E): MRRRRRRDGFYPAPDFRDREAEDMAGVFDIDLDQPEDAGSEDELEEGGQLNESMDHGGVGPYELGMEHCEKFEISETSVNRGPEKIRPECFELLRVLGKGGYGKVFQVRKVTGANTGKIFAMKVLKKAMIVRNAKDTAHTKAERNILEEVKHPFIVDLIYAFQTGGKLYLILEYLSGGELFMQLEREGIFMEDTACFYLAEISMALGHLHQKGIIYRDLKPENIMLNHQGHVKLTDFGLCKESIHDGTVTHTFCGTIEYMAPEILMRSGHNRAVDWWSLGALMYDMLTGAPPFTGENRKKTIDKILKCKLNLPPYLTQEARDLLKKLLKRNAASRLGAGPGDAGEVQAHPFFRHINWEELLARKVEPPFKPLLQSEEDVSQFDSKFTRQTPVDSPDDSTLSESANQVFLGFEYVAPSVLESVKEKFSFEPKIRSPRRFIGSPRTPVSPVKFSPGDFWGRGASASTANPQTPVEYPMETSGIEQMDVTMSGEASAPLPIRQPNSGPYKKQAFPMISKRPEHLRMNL

SMILES | IC50 [nM]
Cn1cc(-c2ccc(F)c(C(F)(F)F)c2)nc1C1CCN(c2ncnc(N)c2-c2ccc(N3CCOCC3)nc2)CC1 [Compound 25, 6-{4-[4-(4-Fluoro-3-trifluoromethyl-phenyl)-1-methyl-1H-imidazol-2-yl]-piperidin-1-yl}-5-(6-morpholin-4-yl-pyridin-3-yl)-pyrimidin-4-ylamine] | 190
CCc1c(N)ncnc1N1CCC(c2nc(-c3ccnc(C(F)(F)F)c3)cn2CCNC)CC1 [Compound 171, 5-ethyl-6-(4-(1-(2-(methylamino)ethyl)-4-(2-(trifluoromethyl)pyridin-4-yl)-1H-imidazol-2-yl)piperidin-1-yl)pyrimidin-4-amine] | 0.6
COc1ccc(-c2c(N)ncnc2N2CCC(c3nc(-c4cccc(C(F)(F)F)c4)c[nH]3)CC2)cc1 [Compound 33, 5-(4-Methoxy-phenyl)-6-{4-[4-(3-trifluoromethyl-phenyl)-1H-imidazol-2-yl]-piperidin-1-yl}-pyrimidin-4-ylamine] | 2.7
Cn1cc(-c2ccc(F)c(C(F)(F)F)c2)nc1C1CCN(c2ncnc(N)c2-c2ccc(CN)cc2)CC1 [Compound 32, 5-(4-Aminomethyl-phenyl)-6-{4-[4-(4-fluoro-3-trifluoromethyl-phenyl)-1-methyl-1H-imidazol-2-yl]-piperidin-1-yl}-pyrimidin-4-ylamine] | 4.2
Cn1cc(-c2ccc(F)c(C(F)(F)F)c2)nc1C1CCN(c2ncncc2-c2ccc(F)cc2)CC1 [Compound 42, 5-(4-Fluoro-phenyl)-4-{4-[4-(4-fluoro-3-trifluoromethyl-phenyl)-1-methyl-1H-imidazol-2-yl]-piperidin-1-yl}-pyrimidine] | 5.4
Cn1cc(-c2ccc(F)c(C(F)(F)F)c2)nc1C1CCN(c2ncnc(N)c2-c2ccccc2C#N)CC1 [Compound 18, 2-(4-Amino-6-{4-[4-(4-fluoro-3-trifluoromethyl-phenyl)-1-methyl-1H-imidazol-2-yl]-piperidin-1-yl}-pyrimidin-5-yl)-benzonitrile] | 250
Cn1cc(-c2ccc(F)c(C(F)(F)F)c2)nc1C1CCN(c2ncnc(N)c2-c2cccc(Cl)c2)CC1 [Compound 51, 5-(3-Chloro-phenyl)-6-{4-[4-(4-fluoro-3-trifluoromethyl-phenyl)-1-methyl-1H-imidazol-2-yl]-piperidin-1-yl}-pyrimidin-4-ylamine] | 22
CN(C)c1ncc(-c2c(N)ncnc2N2CCC(c3nc(-c4ccc(F)c(C(F)(F)F)c4)cn3C)CC2)cn1 [Compound 31, 6′-{4-[4-(4-Fluoro-3-trifluoromethyl-phenyl)-1-methyl-1H-imidazol-2-yl]-piperidin-1-yl}-N2,N2-dimethyl-[5,5]bipyrimidinyl-2,4′-diamine] | 7.5
Cn1cc(-c2ccc(F)c(C(F)(F)F)c2)nc1C1CCN(c2ncnc(N)c2-c2cccc(F)c2)CC1 [Compound 22, 5-(3-Fluoro-phenyl)-6-{4-[4-(4-fluoro-3-trifluoromethyl-phenyl)-1-methyl-1H-imidazol-2-yl]-piperidin-1-yl}-pyrimidin-4-ylamine] | 1.6
Cn1cc(-c2ccc(F)c(C(F)(F)F)c2)nc1C1CCN(c2cc(N)ncn2)CC1 [Compound 12, 6-{4-[4-(4-Fluoro-3-trifluoromethyl-phenyl)-1-methyl-1H-imidazol-2-yl]-piperidin-1-yl}-pyrimidin-4-ylamine] | 87
Cn1cc(-c2ccc(F)c(C(F)(F)F)c2)nc1C1CCN(c2ncnc(N)c2-c2ccc(Cl)nc2)CC1 [Compound 50, 5-(6-Chloro-pyridin-3-yl)-6-{4-[4-(4-fluoro-3-trifluoromethyl-phenyl)-1-methyl-1H-imidazol-2-yl]-piperidin-1-yl}-pyrimidin-4-ylamine] | 4.5
Cn1cc(-c2ccc(F)c(C(F)(F)F)c2)nc1C1CCN(c2ncnc(N)c2-c2ccc(F)nc2)CC1 [Compound 27, 5-(6-Fluoro-pyridin-3-yl)-6-{4-[4-(4-fluoro-3-trifluoromethyl-phenyl)-1-methyl-1H-imidazol-2-yl]-piperidin-1-yl}-pyrimidin-4-ylamine] | 3
Cn1c(-c2ccc(F)c(C(F)(F)F)c2)cnc1C1CCN(c2ncnc(N)c2Br)CC1 [Compound 2, 5-Bromo-6-{4-[5-(4-fluoro-3-trifluoromethyl-phenyl)-1-methyl-1H-imidazol-2-yl]-piperidin-1-yl}-pyrimidin-4-ylamine] | 57
FC(F)(F)c1cccc(-c2c[nH]c(C3CCN(c4ccncc4Br)CC3)n2)c1 [Compound 5, 3-bromo-4-(4-{4-[3-(trifluoromethyl)phenyl]-1H-imidazol-2-yl}piperidin-1-yl)pyridine] | 315
Cn1cc(-c2ccc(F)c(C(F)(F)F)c2)nc1C1CCN(c2ncnc(N)c2/C=C/C(N)=O)CC1 [Compound 46, (E)-3-(4-Amino-6-{4-[4-(4-fluoro-3-trifluoromethyl-phenyl)-1-methyl-1H-imidazol-2-yl]-piperidin-1-yl}-pyrimidin-5-yl)-acrylamide] | 14

The next lines start with the values.

IC50 [nM] | SMILES
5 | Cn1cc(-c2ccc(F)c(C(F)(F)F)c2)nc1C1CCN(c2ncnc(N)c2-c2ccc(C#N)c(F)c2)CC1 [Compound 52, 4-(4-Amino-6-{4-[4-(4-fluoro-3-trifluoromethyl-phenyl)-1-methyl-1H-imidazol-2-yl]-piperidin-1-yl}-pyrimidin-5-yl)-2-fluoro-benzonitrile]
3.7 | Cn1cc(-c2ccc(F)c(C(F)(F)F)c2)nc1C1CCN(c2ncnc(N)c2-c2ccccc2)CC1 [Compound 21, 6-{4-[4-(4-Fluoro-3-trifluoromethyl-phenyl)-1-methyl-1H-imidazol-2-yl]-piperidin-1-yl}-5-phenyl-pyrimidin-4-ylamine]
3.5 | COC(=O)/C=C/c1c(N)ncnc1N1CCC(c2nc(-c3ccc(F)c(C(F)(F)F)c3)cn2C)CC1 [Compound 45, (E)-3-(4-Amino-6-{4-[4-(4-fluoro-3-trifluoromethyl-phenyl)-1-methyl-1H-imidazol-2-yl]-piperidin-1-yl}-pyrimidin-5-yl)-acrylic acid methyl ester]
0.8 | CCOc1c(N)ncnc1N1CCC(c2nc(-c3ccc(F)c(Cl)c3)cn2CCN2CCCC2)CC1 [Compound 289]
9.8 | COc1cccc(-c2c(N)ncnc2N2CCC(c3nc(-c4ccc(F)c(C(F)(F)F)c4)cn3C)CC2)c1 [Compound 29, 6-{4-[4-(4-Fluoro-3-trifluoromethyl-phenyl)-1-methyl-1H-imidazol-2-yl]-piperidin-1-yl}-5-(3-methoxyphenyl)-pyrimidin-4-ylamine]
6.3 | Cn1cc(-c2ccc(F)c(C(F)(F)F)c2)nc1C1CCN(c2ncnc(N)c2-c2ccc(F)c(F)c2)CC1 [Compound 30, 5-(3,4-Difluoro-phenyl)-6-{4-[4-(4-fluoro-3-trifluoromethyl-phenyl)-1-methyl-1H-imidazol-2-yl]-piperidin-1-yl}-pyrimidin-4-ylamine]
3 | Cn1cc(-c2ccc(F)c(C(F)(F)F)c2)nc1C1CCN(c2ncnc(N)c2-c2ccccc2F)CC1 [Compound 23, 5-(2-Fluorophenyl)-6-{4-[4-(4-fluoro-3-trifluoromethyl-phenyl)-1-methyl-1H-imidazol-2-yl]-piperidin-1-yl}-pyrimidin-4-ylamine]
4.4 | Cn1cc(-c2ccc(F)c(C(F)(F)F)c2)nc1C1CCN(c2ncnc(N)c2-c2cnc(N)nc2)CC1 [Compound 28, 6′-{4-[4-(4-Fluoro-3-trifluoromethyl-phenyl)-1-methyl-1H-imidazol-2-yl]-piperidin-1-yl}-[5,5]bipyrimidinyl-2,4′-diamine]
